Assay results reported in paper PMC10020958, “2-(4-Fluorophenyl)-1H-benzo[d]imidazole as a Promising Template for the Development of Metabolically Robust, α1β2γ2GABA-A Receptor-Positive Allosteric Modulators” (ACS Chemical Neuroscience, 2023).
Converted amounts (≈) assume the structure as drawn.

Key:
[1] = biological target: GABA-A receptor (benzodiazepine site, α1/γ2 interface); test: Radioligand binding assay for the GABA-A receptor ([3H]-flunitrazepam displacement, rat brain homogenate); conditions: pKi = -log Ki, n.a. = no affinity
in vitro = conditions: human; for remaining at 2 h, 50 μM: % remaining (parent compound)
Method: Given that our goal was to obtain metabolically stable scaffolds, we selected 9 and 23 as representatives of each series for metabolic stability studies using human liver microsomes (HLMs). In parallel, we interrogated the quality of 1H-benzo[d]imidazole derivatives by confronting them head-to-head with the comparator drug alpidem.
The in vitro evaluation of the metabolic stability of the selected compound was performed using human liver microsomes (HLMs) (Sigma-Aldrich, St. Louis, MO, USA) as described previously.[25] The reaction mixture contained 50 μM of tested molecules HLMs (1 mg/mL) in 10 mM tris–HCl buffer. Following 5 min of preincubation, 50 μL of the NADPH Regeneration System (Promega, Madison, WI, USA) was added to induce the reaction. Next, the resulting reaction mixture was incubated at 37 °C for 120 min. The reaction was quenched with the addition of 200 μL of cold extra pure methanol and then centrifuged at 14,000 rpm for 15 min. The resulting supernatant was analyzed using an LC/MS Waters ACQUITY TQD system (Waters, Milford, USA).

[2] = test system: HepG2 human hepatoma cells; test: Hepatotoxicity assay: mitochondrial membrane potential (JC-1 probe); format: cell-based; conditions: 100 μM, 24 h treatment
Method: (§1) Given that drug-induced liver injury (DILI) is the leading cause of the termination of potential drug candidates,[21],[22] two of the main molecules 9 and 23 were further assayed in HepG2 human hepatoma cells to assess their potential risk of toxicity.[23] The hepatotoxicity of the compounds tested was evaluated using two methods: cell viability (Figure 8A,B) and mitochondrial membrane potential assay (Figure 8C).
(§2) Figure 8 Hepatotoxicity assays for selected lead molecules. Cell viability (A) was measured using the PrestoBlue reagent, cell membrane damage (B) was assessed using the ToxiLight bioassay, and mitochondrial membrane potential (C) was assessed using a JC-1 probe. Assays performed after 24 h treatment with tested compounds and a reference alpidem. Results are presented as mean % of untreated controls ± S.D. (n = 3). Differences among groups were evaluated by one-way ANOVA followed by post-hoc analysis (Dunnett’s multiple comparison tests) and were considered statistically significant if p < 0.05 (****p < 0.0001, ***p < 0.001, **p < 0.01, and *p < 0.05). […]
(§3) Cell viability was measured using the PrestoBlue reagent (Thermo Fisher). […] Metabolically active cells are capable of reducing the PrestoBlue reagent, with the colorimetric changes used as an indicator to quantify the viability of cells in culture. This change can be determined by measuring the fluorescence. […] After 30 min of incubation at 37 °C, the fluorescence intensity (EX 530; EM 580 nm) was measured by using a multifunction plate reader (POLARstar Omega, BMG Labtech, Germany). Viability values were calculated as a percentage of live cells with respect to the control sample. Cell membrane damage was measured using the bioluminescent ToxiLight bioassay (Lonza). It quantitatively measures the release of adenylate kinase (AK) from the membranes of damaged cells. […] The enzyme actively phosphorylates ADP, and the resultant ATP is then measured using the bioluminescent firefly luciferase reaction with the ToxiLight reagent. […]

[3] = Thermodynamic solubility in phosphate buffer pH = 7.4; format: physicochemical; conditions: phosphate buffer (Dulbecco's phosphate-buffered saline), aqueous buffer, thermodynamic from solid, phosphate buffer pH = 7.4, 20 °C
Method: Quantitative HPLC analyses were performed on a Waters Alliance e2695 Separations Module (Waters, Milford, CT, USA) with a detector 2998 Photodiode Array (PDA) detector (Waters, Milford, CT, USA) and the Chromolithe SpeedROD RP-18e 50–4.6 mm column (Merck, KGaA, Darmstadt, Germany). The column was kept at 30 °C. The conditions applied are as follows: eluent A (water/0.1% formic acid), eluent B (MeCN/0.1% formic acid), a flow rate of ,5 mL/min, a gradient of 0–100% B over 3 min, and an injection volume of 10 μL. Each sample was injected in triplicate. […] Standard solutions of the tested compounds and the reference compound were prepared in methanol at a concentration of 1 mg/mL. […] Next, 2 mg of the compound tested was dissolved in 1 mL of Dulbecco’s phosphate-buffered saline (DPBS), and the mixture was constantly agitated at 20 °C for 24 h in a thermoshaker. After that time, the mixtures were filtered through a cellulose acetate syringe filter (pore size 0.22 μm) and transferred to a chromatographic vial and analyzed using HPLC. For quantification, areas under the peaks of the investigated compounds on DAD chromatograms were used. Solubility was determined using the calibration curves.

[4] = test system: HepG2 human hepatoma cells; test: Hepatotoxicity assay: cell viability (PrestoBlue) and cell membrane damage (ToxiLight); format: cell-based; conditions: 24 h treatment; for cytotoxic effect in HepG2 cells: concentrations up to 50 μM
Method: as §1, §2, §3

[5] = biological target: T1, α1β2γ2-GABA-A receptors stably expressed in HEK293 cells (Homo sapiens, UniProt P14867+P18507); test: Electrophysiological studies, automated patch clamp (QPatch16X), positive allosteric modulation of GABA-induced Cl- currents; format: cell-based; conditions: compound 1 μM co-applied with 10 μM GABA; GABA alone = 100%; mean ± SEM
T1 construct: expressed in transfected cells
T1 sequence (P14867 28-456): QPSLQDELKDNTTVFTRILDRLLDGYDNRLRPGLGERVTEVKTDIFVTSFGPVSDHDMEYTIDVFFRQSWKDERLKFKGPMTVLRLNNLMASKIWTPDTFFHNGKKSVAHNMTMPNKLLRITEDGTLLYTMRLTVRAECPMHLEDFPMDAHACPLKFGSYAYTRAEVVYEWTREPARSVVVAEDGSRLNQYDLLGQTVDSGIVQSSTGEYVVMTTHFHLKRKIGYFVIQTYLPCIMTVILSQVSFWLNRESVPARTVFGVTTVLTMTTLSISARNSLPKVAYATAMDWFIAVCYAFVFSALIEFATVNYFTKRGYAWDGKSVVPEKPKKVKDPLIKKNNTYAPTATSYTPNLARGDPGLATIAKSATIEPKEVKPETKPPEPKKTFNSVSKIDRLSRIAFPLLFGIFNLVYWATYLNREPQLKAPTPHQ
T1 sequence (P47870 25-512 partner limits assumed): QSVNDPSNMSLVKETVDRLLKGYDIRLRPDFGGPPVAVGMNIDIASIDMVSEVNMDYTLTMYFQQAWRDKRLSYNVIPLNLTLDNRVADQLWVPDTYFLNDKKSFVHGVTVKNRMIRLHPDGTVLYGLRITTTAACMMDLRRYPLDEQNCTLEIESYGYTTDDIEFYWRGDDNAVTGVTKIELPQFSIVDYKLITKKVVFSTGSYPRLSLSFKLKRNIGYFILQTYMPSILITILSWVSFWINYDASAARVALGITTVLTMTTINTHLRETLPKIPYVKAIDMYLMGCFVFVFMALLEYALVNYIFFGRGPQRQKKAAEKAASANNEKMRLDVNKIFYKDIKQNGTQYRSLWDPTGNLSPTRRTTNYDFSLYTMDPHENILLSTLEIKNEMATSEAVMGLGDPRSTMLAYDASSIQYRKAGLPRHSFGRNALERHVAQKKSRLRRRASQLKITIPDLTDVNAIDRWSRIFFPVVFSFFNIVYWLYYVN
T1 sequence (P18507 40-475): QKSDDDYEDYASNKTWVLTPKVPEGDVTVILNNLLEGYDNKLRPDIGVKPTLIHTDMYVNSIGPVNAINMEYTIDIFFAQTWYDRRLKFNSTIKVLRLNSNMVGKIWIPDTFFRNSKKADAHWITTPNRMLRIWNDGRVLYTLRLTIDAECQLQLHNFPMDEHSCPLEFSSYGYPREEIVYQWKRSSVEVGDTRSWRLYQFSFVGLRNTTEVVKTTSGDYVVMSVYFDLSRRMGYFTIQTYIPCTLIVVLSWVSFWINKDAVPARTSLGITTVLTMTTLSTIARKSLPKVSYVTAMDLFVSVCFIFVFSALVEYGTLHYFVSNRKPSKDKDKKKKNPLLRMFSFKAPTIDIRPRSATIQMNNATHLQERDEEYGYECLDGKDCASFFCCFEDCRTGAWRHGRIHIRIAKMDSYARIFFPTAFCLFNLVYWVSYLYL
Method: Given that ligands binding within the α1/γ2 interface act as PAMs, we selected the most promising 1H-benzo[d]imidazoles (9, 15, 16, 23, and 29) for electrophysiological studies using automated patch clamp recordings (QPatch16X, Sophion). We expected that 1H-benzo[d]imidazoles would potentiate GABA-induced Cl^– currents rather than inducing ion passage alone.
Electrophysiology studies were performed using the QPatch16X automatic patch clamp platform (Sophion Biosciences) and HEK293 cells, stably expressing the α1β2γ2 subunits of the human GABA-A receptor. Prior to the assay recordings, the cells were transferred from the culture flask through a TrypLE Express solution (LifeTechnologies) and resuspended in serum-free media. The cells were placed in the lidless microtube, located onboard the automated electrophysiology instrument. The cells were then automatically relocated to a built-in centrifuge, spun down, and washed in Ringer’s extracellular solution. The cells were transferred to the pipetting wells of a single-use 16-channel planar patch chip plate (QPlate 16X), and gigaseals were formed upon implementation of a combined suction/voltage protocol. Subsequent suction induced whole-cell configuration. The chloride currents passed via the GABA-A receptor were recorded for 7 s after single addition of a tested molecule. Through whole-cell recording, the holding potential was set to −90 mV. The assay was performed at room temperature. The extracellular solution was composed of the following ingredients: consisted of 2 mM […], 145 mM NaCl, 10 mM HEPES, CaCl2, 1 mM MgCl2, 10 mM glucose (pH 7.4, 300 mOsm), and intracellular solution contained 140 mM CsF, 1 mM EGTA, 5 mM CsOH, 10 mM HEPES, and 20 mMNaCl (pH 7.2, 320 mOsm). The screening assays were established in the instrument software by sequential application of 10 μM GABA (reference agonist AG1), 1 μM examined molecule compounds, and compounds co-administered with 10 μM GABA (T2); second addition of 10 μM GABA (AG2); 10 μM bicuculline (reference antagonist) along with 10 μM GABA (ATG). The intermission among the addition of particular molecules was 60 s. In a typical procedure, 5 μL of ligand was added to the cells, followed by 3 s of washout with an extracellular solution (two times […]). For the allosteric modulator/antagonist mode, the cells were preincubated with the tested compound alone for 50 s, followed by the addition of the reference agonist. The data obtained were processed using QPatch Assay Software (v5.0, Sophion Biosciences) and are represented as the mean of at least three independent experiments performed on separate cells. The validation criteria for a single test were current amplitude evoked by adding GABA greater than 500 pA and a change between cells’ response to GABA applications (AG1 and AG2) not greater than 25%. The relative compound efficiency was analyzed as the baseline-corrected ratio of maximal current amplitudes induced by the addition of tested compounds and reference agonist (T1-ATG/AG1-ATG or T2-ATG/AG1-ATG). The obtained raw current recordings were normalized and represented as % of the current amplitude induced by a reference agonist (GABA = 100%) using the QPatch Assay Software (v5.0, Sophion Biosciences).[24]

| SMILES | pKi GABA-A [1] | formation of hydroxylated metabolite (M1) (in vitro; 120 min, 50 μM) | remaining at 2 h, 50 μM (in vitro; microsomes) | mitochondrial membrane potential (MMP) of HepG2 cells [2] | solubility at 24 h [3] | cytotoxic effect in HepG2 cells [4] | % of 10 μM GABA response [5] | hepatotoxicity in HepG2 cells ([4]; at 100 and 50 μM) | % remaining (parent compound) (in vitro; microsomes, 2 h, 50 μM) |
| --- | --- | --- | --- | --- | --- | --- | --- | --- | --- |
| NC(=O)c1cccc(NC(=O)Cn2c(-c3ccc(F)cc3)nc3ccccc32)c1 [Compound 23, 3-(2-(2-(4-Fluorophenyl)-1H-benzo[d]imidazole-1-yl)acetamido)benzamide] | 6.05 | 10.87% | 89.1% | did not observe mitochondrial membrane potential (MMP) attenuation | 74 ± 0.81 µg/mL (≈ 191 µM) | did not induce any significant cytotoxic effect | 132 ± 13,2% |  |  |
| CCCN(CCC)C(=O)Cc1c(-c2ccc(Cl)cc2)nc2ccc(Cl)cn12 [alpidem, reference compound] |  |  | 38.6% | induced mitochondrial dysfunction |  |  |  | noticeable hepatotoxicity |  |
| Cc1ccc2nc(-c3ccc(F)cc3)n(CC(=O)N3CCCC3)c2c1 [Compound 9, 2-(2-(4-Fluorophenyl)-6-methyl-1H-benzo[d]imidazole-1-yl)-1-(pyrrolidin-1-yl)ethan-1-one] | 5.5 |  | 90% | did not observe mitochondrial membrane potential (MMP) attenuation | 50 ± 0.54 µg/mL (≈ 148 µM) | did not induce any significant cytotoxic effect | 172 ± 12,5% |  | 90.12% |
